Results published in ChEMBL document CHEMBL1687731, “Reverse transcriptase inhibitors as potential colorectal microbicides” (Antimicrob Agents Chemother, 2009).
Active and inactive are the calls of the source. The rule behind the calls is not given here.

What was measured:
[1] = test system: Human immunodeficiency virus 1; test: Antiviral activity against R5 tropic HIV1 R8.BaL infected in human PBMC assessed as inhibition of p24 antigen production after 2 hrs by ELISA; format: functional, organism-based; details: Human immunodeficiency virus 1, R8.BaL
[2] = test system: Human immunodeficiency virus 1; test: Antiviral activity against HIV1 isolate 71361-1 harboring reverse transcriptase K65R mutant infected in human TZM-b1 cells after 2 hrs by luciferase assays; format: functional, organism-based
[3] = test system: Human immunodeficiency virus 1; test: Antiviral activity against R5 tropic HIV1 YU.2 infected in human TZM-b1 cells after 2 hrs by luciferase assay; format: functional, organism-based; details: Human immunodeficiency virus 1, YU.2, TZM-b1, 2 h
[4] = test system: Human immunodeficiency virus 1; test: Antiviral activity against X4 tropic HIV1 RF infected in human TZM-b1 cells after 2 hrs by luciferase assay; format: functional, organism-based; details: Human immunodeficiency virus 1, RF, TZM-b1, 2 h
[5] = test system: Human immunodeficiency virus 1; test: Antiviral activity against X4 tropic HIV1 3B infected in human TZM-b1 cells after 2 hrs by luciferase assay; format: functional, organism-based; details: Human immunodeficiency virus 1, 3B, TZM-b1, 2 h
[6] = Cytotoxicity against human TZM-bl cells by MTT assay; format: cell-based
PBMC = test: Cytotoxicity against human PBMC by MTT assay; format: cell-based
[7] = test system: Human immunodeficiency virus 1; test: Antiviral activity against R5 tropic HIV1 BaL infected in human TZM-b1 cells after 2 hrs by luciferase assay; format: functional, organism-based; details: Human immunodeficiency virus 1, BaL, TZM-b1, 2 h
[8] = test system: Human immunodeficiency virus 1; test: Antiviral activity against X4 tropic HIV1 NL4.3 infected in human TZM-b1 cells after 2 hrs by luciferase assay; format: functional, organism-based; details: Human immunodeficiency virus 1, NL4.3, TZM-b1, 2 h
[9] = test system: Human immunodeficiency virus 1; test: Antiviral activity against HIV1 A17 harboring reverse transcriptase K103N, Y181C mutant infected in human TZM-b1 cells after 2 hrs by luciferase assays; format: functional, organism-based
[10] = test system: Human immunodeficiency virus 1; test: Antiviral activity against R5 tropic HIV1 YU.2 infected in human PBMC assessed as inhibition of p24 antigen production after 2 hrs by ELISA; format: functional, organism-based; details: Human immunodeficiency virus 1, YU.2, 2 h
[11] = test system: Human immunodeficiency virus 1; test: Ratio of IC50 for wild type HIV1 to IC50 for HIV1 A17 harboring reverse transcriptase K103N, Y181C mutant; format: functional
[12] = test system: Human immunodeficiency virus 1; test: Antiviral activity against R5 tropic HIV1 R8.BaL infected in human TZM-b1 cells after 2 hrs by luciferase assay; format: functional, organism-based; details: Human immunodeficiency virus 1, R8.BaL, TZM-b1, 2 h
[13] = test system: Human immunodeficiency virus 1; test: Antiviral activity against X4 tropic HIV1 RF infected in human PBMC assessed as inhibition of p24 antigen production after 2 hrs by ELISA; format: functional, organism-based; details: Human immunodeficiency virus 1, RF
[14] = test system: Human immunodeficiency virus 1; test: Antiviral activity against X4 tropic HIV1 NL4.3 infected in human PBMC assessed as inhibition of p24 antigen production after 2 hrs by ELISA; format: functional, organism-based; details: Human immunodeficiency virus 1, NL4.3, 2 h
[15] = test system: Human immunodeficiency virus 1; test: Antiviral activity against HIV1 isolate 8415-2 harboring reverse transcriptase K65R mutant co-expressing M184V mutant infected in human TZM-b1 cells after 2 hrs by luciferase assays; format: functional, organism-based; details: Human immunodeficiency virus 1, isolate 8415-2, TZM-b1, 2 h

Structure (SMILES) | IC50 [1] [nM] | Activity [2] | IC50 [3] [nM] | IC50 [4] [nM] | IC50 [5] [nM] | Activity [6] | Activity (PBMC) | IC50 [7] [nM] | IC50 [8] [nM] | IC50 ([9]; Human immunodeficiency virus 1, A17, TZM-b1, 2 h) [nM] | IC50 [10] [nM] | Ratio IC50 [11] | IC50 [12] [nM] | IC50 [13] [nM] | IC50 [14] [nM] | IC50 ([2]; Human immunodeficiency virus 1, isolate 71361-1, TZM-b1, 2 h) [nM] | IC50 [15] [nM] | Activity [9]
Cc1cc(C)c(Nc2ccnc(Nc3ccc(C#N)cc3)n2)c(C)c1 [DAPIVIRINE] | 1.09 | inactive | 0.15 | 0.84 | 0.53 | Non-toxic | Non-toxic | 0.8 | 0.37 | 8.34 | 1.11 | 17 | 0.19 | 1.48 | 1.15 | – | – | –
C[C@H](Cn1cnc2c(N)ncnc21)OCP(=O)(O)O [TENOFOVIR ANHYDROUS] | 1010 | – | 3340 | 4030 | 2300 | Non-toxic | Non-toxic | 2520 | 6690 | – | 884 | – | 4590 | 1600 | 1400 | > 30000 | 820 | –
CC(C)=CCOc1cc(NC(=S)c2ccoc2C)ccc1Cl [UC 781] | 10.2 | – | 5.87 | 6.01 | 7.99 | Non-toxic | Non-toxic | 9.34 | 10.2 | – | 11.2 | – | 5.86 | 9.2 | 17.6 | – | – | inactive
